Experimental data reported in patent US9126999B2, “Tetrahydropyrazolopyrimidine compounds” (EISAI R&D MANAGEMENT CO., LTD., priority 2012, dated 2015).

Experiments:
[1] = tested on: T1, Human TLR7/8; assay: Human PBMC cell-based assay, R848 stimulus, IL-6 ELISA; conditions: Hu PBMC; ligand R848; analyte IL-6
T1 construct: IC50; other: Hu PBMC; ligand RNA-Ig; analyte IL-6; analyte TNFα; ligand R848; IC50 against the RNA-Ig TLR7/8 stimulus; cytokine responses to RNA-Ig complexes in vitro; potency against the RNA-Ig TLR7/8 stimulus versus HCQ
Procedure: (§1) Human peripheral blood mononuclear cells (PBMC) were isolated from freshly-drawn heparinized (10 USP units/ml, Hospira, Lakeforest, Ill.) healthy donor whole blood by density gradient (Histopaque® 1077, Sigma, Inc., St. Louis, Mo.). Briefly, 25 ml blood was diluted with 15 ml PBS (without Ca^2+, Mg^2+) in a 50 ml conical tube, and 12 ml Histopaque was underlaid using a spinal needle. Tubes were centrifuged for 45 minutes at 1200 rpm (350×g), and PBMC were collected from the buffy coat. Cells were then washed twice in PBS, and red blood cells were lysed by suspension in 5 ml ammonium chloride solution (1× Red Blood Cell Lysis Buffer, eBioscience) for 5 minutes at room temperature. […]
(§2) Antagonist compounds solubilized and serial diluted in 100% DMSO were added in triplicate to cells to yield a final concentration of 0.1% DMSO (v/v). […] Cell culture supernatants were collected, and levels of various human cytokines were assessed as indicated by standard ELISA procedure according to the manufacturer's recommended protocol (BD Biosciences, Inc., San Diego, Calif.).

[2] = biological target: Human TLR4 (Homo sapiens, UniProt O00206); assay: Human PBMC cell-based assay, LPS stimulus, IL-6 ELISA; design: endogenous in cells; host or cells: primary human PBMC from healthy donor blood; conditions: Hu PBMC; ligand LPS; analyte IL-6
Procedure: as §1, §2

Chain of Human TLR4 (O00206 24-839): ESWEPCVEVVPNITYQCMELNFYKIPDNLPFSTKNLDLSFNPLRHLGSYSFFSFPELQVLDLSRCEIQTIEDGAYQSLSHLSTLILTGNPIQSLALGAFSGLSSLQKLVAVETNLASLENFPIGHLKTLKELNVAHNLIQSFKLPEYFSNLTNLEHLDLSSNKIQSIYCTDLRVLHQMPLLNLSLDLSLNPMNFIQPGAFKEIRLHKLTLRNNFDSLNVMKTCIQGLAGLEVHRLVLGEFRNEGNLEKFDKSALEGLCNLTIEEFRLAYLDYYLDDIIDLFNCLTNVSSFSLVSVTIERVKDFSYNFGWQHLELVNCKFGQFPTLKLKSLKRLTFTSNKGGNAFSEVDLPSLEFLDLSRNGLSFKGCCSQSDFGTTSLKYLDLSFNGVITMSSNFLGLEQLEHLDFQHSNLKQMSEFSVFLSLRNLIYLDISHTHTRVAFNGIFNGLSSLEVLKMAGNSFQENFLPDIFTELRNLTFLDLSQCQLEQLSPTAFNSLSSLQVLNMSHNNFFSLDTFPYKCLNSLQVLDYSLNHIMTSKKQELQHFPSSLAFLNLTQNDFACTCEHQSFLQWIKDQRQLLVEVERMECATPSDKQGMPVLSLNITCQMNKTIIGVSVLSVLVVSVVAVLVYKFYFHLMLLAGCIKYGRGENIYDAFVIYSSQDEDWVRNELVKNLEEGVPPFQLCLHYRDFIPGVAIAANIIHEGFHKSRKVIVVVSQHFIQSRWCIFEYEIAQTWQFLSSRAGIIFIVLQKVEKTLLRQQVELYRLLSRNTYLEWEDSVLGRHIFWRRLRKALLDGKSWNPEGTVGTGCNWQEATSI
Chain of Human TLR4 (Q9Y6Y9 19-160 partner): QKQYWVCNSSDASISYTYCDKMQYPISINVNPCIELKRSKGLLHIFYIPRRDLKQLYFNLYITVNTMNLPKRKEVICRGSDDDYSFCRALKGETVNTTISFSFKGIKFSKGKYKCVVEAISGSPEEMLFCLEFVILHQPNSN

COc1ccc([C@@H]2C[C@H](C(F)(F)F)n3nc(-c4ccc(C(=O)N5CCNCC5)cc4)cc3N2)cc1OC [ER-892887, (4-((5S,7R)-5-(3,4-dimethoxyphenyl)-7-(trifluoromethyl)-4,5,6,7-tetrahydropyrazolo[1,5-a]pyrimidin-2-yl)phenyl)(piperazin-1-yl)methanone]
IC50 [1]: 16 nM | IC50 [2]: > 10000 nM
